Experimental data published in BindingDB's records for doi:10.1016/j.bioorg.2016.06.004 (Nirma University, 2016).

Biological target: T1, Seed linoleate 13S-lipoxygenase-1 (Glycine max, UniProt P08170)
T1 sequence (P08170 whole entry): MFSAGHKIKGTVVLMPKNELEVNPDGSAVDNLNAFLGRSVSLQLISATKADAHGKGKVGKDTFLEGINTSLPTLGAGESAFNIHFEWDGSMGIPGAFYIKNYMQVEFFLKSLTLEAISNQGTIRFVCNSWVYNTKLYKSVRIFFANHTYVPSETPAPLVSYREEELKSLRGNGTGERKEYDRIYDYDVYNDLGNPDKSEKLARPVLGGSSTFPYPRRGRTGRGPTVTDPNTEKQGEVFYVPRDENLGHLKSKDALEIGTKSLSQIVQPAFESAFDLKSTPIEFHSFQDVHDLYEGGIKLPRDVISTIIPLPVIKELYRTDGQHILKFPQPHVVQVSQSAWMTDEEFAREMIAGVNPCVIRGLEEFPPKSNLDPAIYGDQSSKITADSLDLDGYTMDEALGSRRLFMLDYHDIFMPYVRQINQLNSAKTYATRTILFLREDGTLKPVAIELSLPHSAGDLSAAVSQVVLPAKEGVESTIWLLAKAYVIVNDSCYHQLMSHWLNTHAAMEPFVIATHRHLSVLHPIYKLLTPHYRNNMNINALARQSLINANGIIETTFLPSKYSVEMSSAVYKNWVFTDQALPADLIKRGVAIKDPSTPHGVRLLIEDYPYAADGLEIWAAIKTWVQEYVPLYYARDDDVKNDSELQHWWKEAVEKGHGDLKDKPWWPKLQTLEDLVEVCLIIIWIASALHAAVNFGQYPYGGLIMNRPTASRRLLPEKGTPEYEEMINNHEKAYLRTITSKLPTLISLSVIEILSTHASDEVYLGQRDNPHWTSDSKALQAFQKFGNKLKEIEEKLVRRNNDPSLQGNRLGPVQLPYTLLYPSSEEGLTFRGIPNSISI
Experiment: In-vitro LOX Inhibition Assay
Settings: pH 9; 25 °C
Experimental: It is determined by kinetic mode of spectro-photometric determination method,which was performed by recording the rate of change in absorbance at 234 nm. It is based on the principle that the increase of absorbance at 234 nm due to formation of 9- and 13- hydroperoxides by LOX with substrate (linoleic acid). […] Briefly, the stock solution of lipoxygenase was prepared by dissolving 10,000 units/ml of Lipoxidase in 200 mM borate buffer, pH 9, and 5 uL of 80 mmol linoleic acid. Six different concentrations of inhibitors were selected, and made for determining the enzyme inhibition activity. Increasing concentrations of inhibitors were added to enzyme solution and kept for 5 min followed by substrate addition and kept at room temperature with stirring for 20 min.

| Structure (SMILES) | IC50 |
| --- | --- |
| COc1ccc2nc(NCC(O)COc3ccc4c(C)cc(=O)oc4c3)sc2c1 (stereo not given) [7-(2-hydroxy-3-(6-methoxybenzo[d]thiazol-2-ylamino)propoxy)-4-methyl-2H-chromen-2-one (35)] | 2.12 nM |
| Cc1cc(=O)oc2cc(OCC(O)CNc3nc4ccc([N+](=O)[O-])cc4s3)ccc12 (stereo not given) [7-(2-hydroxy-3-(6-nitrobenzo[d]thiazol-2-ylamino)propoxy)-4-methyl-2H-chromen-2-one (31)] | 3.24 nM |
| Cc1cc(=O)oc2cc(OCC(O)CNc3nc4cc(Cl)c(Cl)cc4s3)ccc12 (stereo not given) [7-(3-(5,6-dichlorobenzo[d]thiazol-2-ylamino)-2-hydroxypropoxy)-4-methyl-2H-chromen-2-one (34)] | 15.5 nM |
| Cc1cc(=O)oc2cc(OCC(O)CNc3nc4cc(Cl)c(F)cc4s3)ccc12 (stereo not given) [7-(3-(5-chloro-6-fluorobenzo[d]thiazol-2-ylamino)-2-hydroxypropoxy)-4-methyl-2H-chromen-2-one (32)] | 6.16 nM |
| Cc1cc(=O)oc2cc(OCC(O)CNc3nc4ccc(Cl)cc4s3)ccc12 (stereo not given) [7-(3-(6-chlorobenzo[d]thiazol-2-ylamino)-2-hydroxypropoxy)-4-methyl-2H-chromen-2-one (33)] | 2.79 nM |
